{"source": "patent EP4741379A1", "about": "“CLASS OF PROGRAMMED CELL DEATH INHIBITORS, PREPARATION METHOD THEREFOR AND USE THEREOF” (SHANGHAI INSTITUTE OF ORGANIC CHEMISTRY, CHINESE ACADEMY OF …, priority 2023, dated 2025)", "key": {"[1]": {"system": "FADD-deficient Jurkat cells", "test": "TNF-induced programmed necrosis of FADD-deficient Jurkat cells (Cell Titer-Glo viability)", "assay_type": "cell-based, human", "details": "for EC50: Homo sapiens, Jurkat", "procedure": "(§1) The biological test protocol is adopted to test effects of the compound on TNF-induced programmed necrosis of FADD (Fas-associated death domain)-deficient Jurkat cells and L929 cells.\n(§2) Two different stimulation methods were used: treating with tumor necrosis factor (TNFα) alone, or treating with TNFα in combination of mitochondrial-derived cysteine-aspartate activator (SMAC) SM164. Cell viability was determined by measuring chemiluminescence values, thereby assessing the bioactivity of the compounds in inhibiting programmed cell necrosis.\n(§3) Method: FADD-deficient Jurkat cells: FADD-deficient Jurkat cells (human peripheral blood leukemia T cell line) were cultured in vitro. After reaching logarithmic growth phase, cells were collected and centrifuged at 1000 rpm for 5 minutes. A supernatant was discarded. A cell concentration was adjusted to 2.5×10^5/mL, and cells were seeded into a 384-well plate at 40 µL per well. In the corresponding wells, 5 µL of SM164 (50 nM) and compounds diluted with cell culture medium were added. After pre-treatment at 37°C for 1 hour, 5 µL of TNFα (50 ng/mL) diluted with cell culture medium was added to each well as a stimulation group, while 5 µL of culture medium was added as a control group. After the plate was incubated in a cell culture incubator (37°C, 5% CO2) for 14 hours, 15 µL of Cell Titer-Glo solution was added to each well. Then, the plate was incubated at room temperature for 30 minutes. Luminescence was measured to assess intracellular ATP levels. Cell viability was set at 100% for unstimulated DMSO control wells. […] The plate was placed in a cell culture incubator (37°C, 5% CO2) and cultured for 12 hours. In the corresponding wells, 5 µL of SM164 (500 nM) and compounds diluted with cell culture medium were added. After pre-treatment at 37°C for 1 hour, 5 µL of TNFα (500 ng/mL) diluted with cell culture medium was added to the wells as a stimulation group, while 5 µL of culture medium was added as a control group. After the plate was incubated in the cell incubator (37°C, 5% CO2) for 14 hours, 15 µL of Cell Titer-Glo solution was added to each well. Then, the plate was incubated at room temperature for 30 minutes, and luminescence was measured to assess intracellular ATP levels. Cell viability was set at 100% for unstimulated DMSO control wells. EC50 values of the compounds were calculated using Prism GraphPad statistical software."}, "mouse derived RIPK1": {"target": "T1, mouse derived RIPK1 (Mus musculus, UniProt Q60855)", "T1 sequence (Q60855 1-656)": "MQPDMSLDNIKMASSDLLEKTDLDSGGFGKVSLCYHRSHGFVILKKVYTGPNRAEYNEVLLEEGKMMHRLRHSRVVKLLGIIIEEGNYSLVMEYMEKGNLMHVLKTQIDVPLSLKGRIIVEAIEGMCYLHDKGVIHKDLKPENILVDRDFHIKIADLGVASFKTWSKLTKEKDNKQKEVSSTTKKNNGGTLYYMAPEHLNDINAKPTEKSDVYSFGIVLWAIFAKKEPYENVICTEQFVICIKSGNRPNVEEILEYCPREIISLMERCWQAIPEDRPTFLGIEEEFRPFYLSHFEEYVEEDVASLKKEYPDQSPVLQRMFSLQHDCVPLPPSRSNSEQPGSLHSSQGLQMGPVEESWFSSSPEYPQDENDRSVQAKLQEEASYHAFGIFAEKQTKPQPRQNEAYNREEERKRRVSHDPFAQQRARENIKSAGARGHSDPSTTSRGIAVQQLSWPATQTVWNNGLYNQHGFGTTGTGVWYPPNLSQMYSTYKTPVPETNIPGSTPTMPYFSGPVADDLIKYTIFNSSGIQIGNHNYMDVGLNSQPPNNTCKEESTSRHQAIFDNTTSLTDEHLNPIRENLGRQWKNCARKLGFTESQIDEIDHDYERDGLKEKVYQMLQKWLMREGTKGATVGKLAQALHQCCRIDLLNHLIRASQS", "test": "Inhibitory activity against mouse derived RIPK1 (statement only)", "details": "in words"}, "L929 cells": {"system": "L929 cells", "test": "TNF-induced programmed necrosis of L929 cells (Cell Titer-Glo viability)", "assay_type": "cell-based, mouse", "details": "for EC50: Mus musculus", "procedure": "as §1, §2, §3"}, "[2]": {"test": "Brain penetration (brain/plasma drug concentrations) in rats", "assay_type": "in vivo", "procedure": "(§4) A biological test protocol was adopted to test brain/plasma drug concentrations of the compound in living mice and rats. To verify the brain penetration properties of the compounds of the present disclosure in vivo, a representative compound QY-18-26 was selected. Single administration via oral gavage (PO, 10 mg/kg) or intravenous injection (IV, 2 mg/kg) was used to test brain/plasma drug concentrations of the compound in mice (n = 3) at different time points. At the same time, single administration via oral gavage (PO, 5 mg/kg) was used to test brain/plasma drug concentrations in rats (n = 3) at different time points."}, "[3]": {"system": "TNFα-induced systemic inflammatory response syndrome", "test": "TNFα-induced systemic inflammatory response syndrome in mice", "assay_type": "in vivo", "details": "oral gavage 1 mg/kg, 20 minutes before TNFα tail vein injection", "source_text": "A biological test protocol was adopted as follows: systemic inflammatory response syndrome (SIRS), also known as an inflammatory storm, refers to a nonspecific systemic inflammatory response caused by severe infections, multiple trauma, burns, ischemia-reperfusion, acute pancreatitis, and other infectious or non-infectious injuries. Under this condition, a large number of inflammatory factors are released, and in severe cases, the body loses control over the inflammatory response, leading to multiple organ failure and even death. Tail vein injection of tumor necrosis factor TNFα can induce systemic inflammatory response syndrome in mice, causing a drop in body temperature and death of mice. Effects of the representative compound QY-18-26 on TNFα-induced systemic inflammatory response syndrome were tested by monitoring changes in body temperature and death in mice. A known RIPK1 inhibitor Nec-1s was used as a control.\nMethod: The compound to be tested was dissolved in 0.5% carboxymethyl cellulose at the required concentration one day in advance and sonicated overnight. […] Body temperature changes of mice were monitored using an infrared thermometer after injection. Effects of the compound were calculated using Prism GraphPad statistical software."}, "[4]": {"test": "Pharmacokinetic properties in mice", "assay_type": "in vivo", "procedure": "A biological test protocol was adopted to test drug metabolism of the compound in living mice. To verify the pharmacokinetic properties of the compounds of the present disclosure in vivo, the representative compound QY-18-26 was selected. Single administration via oral gavage (PO, 10 mg/kg) or intravenous injection (IV, 1 mg/kg) was used to test the pharmacokinetic properties of the compound in mice (n = 3)."}, "RIPK1 (1-330) protein": {"target": "T2, RIPK1 (1-330) protein (Homo sapiens, UniProt Q13546)", "T2 construct": "test effects of the compound QY-18-26 on kinase activity of RIPK1 (1-330) protein", "T2 sequence (Q13546 1-330)": "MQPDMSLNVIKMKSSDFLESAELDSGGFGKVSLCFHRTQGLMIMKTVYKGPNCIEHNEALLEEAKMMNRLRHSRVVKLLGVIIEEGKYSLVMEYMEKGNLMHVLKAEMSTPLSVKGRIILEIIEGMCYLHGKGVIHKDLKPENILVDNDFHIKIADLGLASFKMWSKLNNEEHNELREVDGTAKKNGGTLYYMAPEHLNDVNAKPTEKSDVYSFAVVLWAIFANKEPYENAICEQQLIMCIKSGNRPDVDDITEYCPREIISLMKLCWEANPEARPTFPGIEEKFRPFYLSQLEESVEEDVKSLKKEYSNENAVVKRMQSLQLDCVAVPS", "test": "RIPK1 kinase activity (ADP-Glo)", "assay_type": "biochemical", "details": "RIPK1 (1-330) 2 µM, 37°C, 2 hours; read-out: effective half-maximal inhibitory concentration", "procedure": "A known clinical RIPK1 inhibitor SAR443122 was used as a control.\nMethod: Into a 384-well plate, RIPK1 (1-330) protein with a final concentration of 2 µM and ATP with a corresponding concentration (in 1X kinase buffer) with a final concentration of 5 µL were added. At least 3 replicates were set for each group and reacted at 37°C for 2 hours. 5 µL of ADP-Glo reagent was added to stop the kinase reaction and remove any remaining ATP in the reaction system. The plate was incubated at room temperature for 40 minutes, added with 10 µL of Kinase Detection Reagent, which was used to convert ADP to ATP and introduce luciferase and luciferin to detect ATP in the system, and reacted at room temperature for 1 hour. Luminescence was measured using a 7500 Fast Real-Time PCR System. IC50 values of compounds in inhibiting the kinase reaction were calculated using Prism GraphPad statistical software."}, "[5]": {"test": "Brain penetration (brain/plasma drug concentrations) in mice", "assay_type": "in vivo", "procedure": "as §4"}, "[6]": {"details": "single dose, PO 10 mg/kg or IV 1 mg/kg"}}, "note": "Like-named read-outs stand apart in the source and are kept apart here.", "data": [{"smiles": "CN1C(=O)[C@@H](NC(=O)c2nnc(Cc3ccccc3)[nH]2)COc2cccnc21", "note": "[SAR443122, reference compound]", "values": [{"measurement": "EC50", "setting": "[1]; read-out: EC50 (nM) FADD^-/- Jurkat cells (human-derived) TNFα", "value": 0.9, "unit": "nM"}, {"measurement": "inhibitory activity against mouse derived RIPK1", "setting": "mouse derived RIPK1", "value": "very poor inhibitory activity"}, {"measurement": "EC50", "setting": "L929 cells; L929, read-out: EC50 (nM) L929 cells (mouse-derived) TNFα", "value": "> 1000", "unit": "nM"}, {"measurement": "programmed necroptosis inhibitory activity on mouse derived L929 cells", "setting": "L929 cells; in words", "value": "nearly inactive"}]}, {"smiles": "C[C@H](NC(=O)c1nnn(C)c1Cc1ccccc1)c1ccc(C#Cc2ccccn2)cc1", "note": "[QY-18-26, (S)-5-benzyl-1-methyl-N-(1-(4-(pyridin-2-ylethynyl)phenyl)ethyl)-1H-1,2,3-triazole-4-formamide]", "values": [{"measurement": "brain-plasma distribution", "setting": "[2]; at 4 hours", "value": "remained stable"}, {"measurement": "Kp", "setting": "[2]; rat, brain, single dose PO 5 mg/kg, read-out: concentration in the brain as share of the concentration in plasma", "value": "~0.4"}, {"measurement": "brain drug concentration", "setting": "[2]; single dose PO 5 mg/kg", "value": "> 5", "unit": "ng/g"}, {"measurement": "EC50", "setting": "[1]; stimulation with TNFα + SM164, read-out: EC50 (nM) FADD^-/- Jurkat cells (human-derived) TNFα+ SM164", "value": "< 0.01", "unit": "nM"}, {"measurement": "EC50", "setting": "[1]; stimulation with TNFα alone, read-out: EC50 (nM) FADD^-/- Jurkat cells (human-derived) TNFα", "value": "< 0.01", "unit": "nM"}, {"measurement": "programmed necroptosis inhibitory activity compared to SAR443122", "setting": "[1]; TNFα alone or TNFα + SM164, human derived FADD-deficient Jurkat cells", "value": "stronger"}, {"measurement": "effect on TNFα-induced body temperature drop, inflammatory response, and death", "setting": "[3]", "value": "effectively counteract"}, {"measurement": "plasma concentration", "setting": "[4]; oral gavage 10 mg/kg, for most of the 24-hour period", "value": "> 5", "unit": "ng/mL"}, {"measurement": "bioavailability (F)", "setting": "[4]; [6]", "value": "very high"}, {"measurement": "exposure (AUC)", "setting": "[4]; [6]", "value": "very high"}, {"measurement": "maximum plasma concentration (Cmax)", "setting": "[4]; [6]", "value": "very high"}, {"measurement": "time to peak concentration", "setting": "[4]; [6]", "value": "rapidly reached a peak concentration"}, {"measurement": "IC50", "setting": "RIPK1 (1-330) protein", "value": 6.4, "unit": "nM"}, {"measurement": "EC50", "setting": "L929 cells; L929, stimulation with TNFα + SM164, read-out: EC50 (nM) L929 cells (mouse-derived) TNFα+ SM164", "value": "< 0.01", "unit": "nM"}, {"measurement": "EC50", "setting": "L929 cells; L929, stimulation with TNFα alone, read-out: EC50 (nM) L929 cells (mouse-derived) TNFα", "value": "< 0.01", "unit": "nM"}, {"measurement": "brain-plasma distribution", "setting": "[5]; at 4 hours", "value": "remained stable"}, {"measurement": "Kp", "setting": "[5]; mouse, brain, single dose PO 10 mg/kg or IV 2 mg/kg, read-out: concentration in the brain as share of the concentration in plasma", "value": "~0.4"}, {"measurement": "brain drug concentration", "setting": "[5]; single dose PO 10 mg/kg or IV 2 mg/kg", "value": "> 5", "unit": "ng/g"}]}]}
